According to PMC12316308, “Interactions of substrates and phosphinyl containing inhibitors with bacterial and human zinc proteases” (PLOS One, 2025):
Where two headings read alike, the source gives them in different places. Where a SMILES comes first, the peptide text is derived from it. [ ]: non-standard residue; d: D form. The star is where a group is joined. Dnp = O=[N+]([O-])c1ccc(*)c([N+](=O)[O-])c1; Mca = COc1ccc2c(CC(=O)*)cc(=O)oc2c1; Dap = NC[C@H](N)C(=O)O

Columns and labels:
[1] = target: T1, MMP-9(A) (Homo sapiens, UniProt P14780); design: method as in PMID 33757387; details: 1% DMSO; cited from earlier work
T1 construct: made in house; host or cells: Sf9 and High Five insect cells
T1 sequence (P14780 107-707 limits assumed): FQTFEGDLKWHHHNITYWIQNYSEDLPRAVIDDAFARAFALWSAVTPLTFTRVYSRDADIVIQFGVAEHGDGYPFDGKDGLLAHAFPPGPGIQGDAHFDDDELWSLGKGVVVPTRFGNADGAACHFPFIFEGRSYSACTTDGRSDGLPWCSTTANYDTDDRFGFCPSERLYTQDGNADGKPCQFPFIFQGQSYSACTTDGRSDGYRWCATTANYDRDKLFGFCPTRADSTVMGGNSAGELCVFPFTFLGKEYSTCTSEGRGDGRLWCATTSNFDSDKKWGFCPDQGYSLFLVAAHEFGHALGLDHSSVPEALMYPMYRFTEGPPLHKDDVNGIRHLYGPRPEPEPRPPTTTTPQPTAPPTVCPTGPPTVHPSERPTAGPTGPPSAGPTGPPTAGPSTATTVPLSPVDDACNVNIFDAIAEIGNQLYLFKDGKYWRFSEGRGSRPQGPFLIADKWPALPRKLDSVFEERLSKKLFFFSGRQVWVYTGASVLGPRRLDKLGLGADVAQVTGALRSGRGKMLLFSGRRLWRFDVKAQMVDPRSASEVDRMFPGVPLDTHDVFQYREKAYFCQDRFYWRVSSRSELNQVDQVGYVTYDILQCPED

[2] = target: T2, MMP-14 (Homo sapiens, UniProt P50281); design: method as in PMID 33757387; details: 1% DMSO; cited from earlier work
T2 construct: human MT1-MMP/MMP-14 (catalytic domain); purchased Calbiochem (San Diego, CA, USA)

[3] = target: T3, human MT1-MMP/MMP-14 (catalytic domain) (Homo sapiens, UniProt P50281); experiment: Enzyme inhibition kinetics, fluorogenic substrate ES001; format: biochemical; details: for inhibitory effect on enzymatic activity: in words; for Ki: read-out: Ki ± s.d. (converted)
T3 construct: human MT1-MMP/MMP-14 (catalytic domain); purchased Calbiochem (San Diego, CA, USA)
Method: (§1) Determination of reaction velocities. The substrate ES001 was used for APMA activated MMP-9 (MMP-9(A)), Mag-Trypsin activated MMP-9 (MMP-9(MT)) and MMP-14, while the substrate ES005 was used for ALN, PLN and TLN. The reaction velocities/initial rates (v) were determined at 37°C, at an excitation wavelength of 320 nm and an emission wavelength of 405 nm with a slit width of 10 nm using either a Perkin Elmer LS 50 Luminescence spectrometer and the FL WinLab Software Package (Perkin Elmer) or a Clario Star micro plate reader (CLARIOstar® BMG LABTECH).
(§2) The phosphinic compounds were dissolved in 100% DMSO to a final concentration of 10 mM. In all assays, a fixed substrate concentration of 4.0 µM was used in a total volume of 100 µL 0.1 M Hepes pH 7.5, 10 mM CaCl2, 0.005% Brij-35 and 1.0% DMSO. Fixed enzyme concentrations were as follows; 0.05 nM MMP-9(A), 0.05 nM MMP-9(MT), 1.0 nM MMP-14, 1.4 nM ALN, 0.5 nM PLN and 0.21 nM TLN. Time dependent inhibitory experiments, with and without 100 μM of phosphinic compounds, were performed as follows: Compounds were either pre-incubated with proteases for 15 and 30 minutes at room temperature before initiating the enzymatic reaction by adding the substrate, or not pre-incubated, meaning the reaction was initiated by adding the protease to the mixture of substrate and compound. Control tests without the compound present were performed under the same conditions. Reactions were monitored for 30 minutes at 37°C.
(§3) Determination of IC50 and Ki values. […] A fixed substrate concentration and the same enzyme and buffer conditions as described above were used. Enzymes, with or without inhibitors, were either pre-incubated for 30 minutes at room temperature or not pre-incubated, and initial rate assays were performed as described above. Assays were performed using a Clario Star microplate reader. The IC50 values with corresponding s.d. were calculated with GraphPad Prism 5 using equation 1 or 2, depending on the concentration range of the phosphinic compounds.
(§4) Equation 3 describe the relationship between IC50 and Ki values for substrate competitive inhibitors, considering the fixed substrate concentration and the enzyme’s Km value for the substrate: […]

[4] = target: T4, APMA activated MMP-9 (MMP-9(A)) (Homo sapiens, UniProt P14780); experiment: as above; format: biochemical; details: for inhibitory effect on enzymatic activity: 100 μM compound, in words; for Ki: read-out: Ki ± s.d. (converted)
T4 construct: made in house; host or cells: Sf9 and High Five insect cells
T4 sequence (P14780 107-707 limits assumed): as above
Method: (§5) The expression of recombinant full length proMMP-9 (rpMMP-9) in Sf9 and High Five insect cells and the purification were performed as previously described. The amount of proMMP-9 was estimated spectrophotometrically at 280 nm using ε280nm = […] [46] for the full length enzyme. Activation of the recombinant proMMP-9 was performed with APMA (auto-activation) and Mag-Trypsin as previously described, while the amount of active MMP-9 was determined by active site titration using galardin, also described previously.
as §1, §2, §3, §4

[5] = target: T5, Mag-Trypsin activated MMP-9 (MMP-9(MT)) (Homo sapiens, UniProt P14780); experiment: as above; format: biochemical; details: for inhibitory effect on enzymatic activity: 100 μM compound, in words; for Ki: read-out: Ki ± s.d. (converted)
T5 construct: made in house; host or cells: Sf9 and High Five insect cells
T5 sequence (P14780 107-707 limits assumed): as above
Method: as §5, §1, §2, §3, §4

[6] = target: T6, aureolysin (ALN) (Staphylococcus aureus, UniProt P81177); experiment: Enzyme inhibition kinetics, fluorogenic substrate ES005; format: biochemical; details: for inhibitory effect on enzymatic activity: 100 μM compound, in words
T6 construct: purchased BioCentrum Ltd (Kraków, Poland)
T6 sequence (P81177 209-509): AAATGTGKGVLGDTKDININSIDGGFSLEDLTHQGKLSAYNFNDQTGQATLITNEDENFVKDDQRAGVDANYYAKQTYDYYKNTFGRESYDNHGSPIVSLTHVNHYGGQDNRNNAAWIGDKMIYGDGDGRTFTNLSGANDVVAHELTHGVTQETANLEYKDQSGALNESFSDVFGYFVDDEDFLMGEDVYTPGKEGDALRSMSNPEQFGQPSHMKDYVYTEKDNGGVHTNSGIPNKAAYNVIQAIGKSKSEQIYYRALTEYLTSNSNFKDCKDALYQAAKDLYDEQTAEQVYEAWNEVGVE
Method: as §1, §2, §3, §4

[7] = target: T7, pseudolysin (PLN, LasB) (Pseudomonas aeruginosa, UniProt P14756); experiment: as above; format: biochemical; details: for inhibitory effect on enzymatic activity: 100 μM compound, in words
T7 construct: purchased Calbiochem (San Diego, CA, USA)
T7 sequence (P14756 198-498): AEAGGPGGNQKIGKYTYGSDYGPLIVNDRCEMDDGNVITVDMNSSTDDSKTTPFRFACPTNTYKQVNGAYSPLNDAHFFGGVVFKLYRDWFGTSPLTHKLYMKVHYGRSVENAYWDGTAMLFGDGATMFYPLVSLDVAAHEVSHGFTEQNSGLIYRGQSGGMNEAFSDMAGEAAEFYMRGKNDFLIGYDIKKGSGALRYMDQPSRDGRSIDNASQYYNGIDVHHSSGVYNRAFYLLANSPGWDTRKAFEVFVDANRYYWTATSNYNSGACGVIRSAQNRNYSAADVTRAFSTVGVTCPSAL
Method: as §1, §2, §3, §4

[8] = target: T8, thermolysin (TLN) (Bacillus thermoproteolyticus, UniProt P00800); experiment: as above; format: biochemical; details: for inhibitory effect on enzymatic activity: 100 μM compound, in words; for Ki: read-out: Ki ± s.d.
T8 construct: purchased Calbiochem (San Diego, CA, USA)
T8 sequence (P00800 233-548): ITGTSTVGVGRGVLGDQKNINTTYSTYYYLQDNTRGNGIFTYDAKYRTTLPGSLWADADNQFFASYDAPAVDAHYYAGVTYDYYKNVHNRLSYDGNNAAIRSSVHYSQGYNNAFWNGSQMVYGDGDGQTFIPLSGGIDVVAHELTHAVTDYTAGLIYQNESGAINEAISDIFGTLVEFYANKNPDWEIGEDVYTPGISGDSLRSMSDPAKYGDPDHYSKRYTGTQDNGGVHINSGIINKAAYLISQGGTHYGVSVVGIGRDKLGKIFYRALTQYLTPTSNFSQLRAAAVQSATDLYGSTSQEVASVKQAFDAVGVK
Method: as §1, §2, §3, §4

[9] = target: T8, thermolysin (TLN); experiment: MALDI-TOF MS analysis of ES005 cleavage; format: biochemical; details: One μM galardin, 100 nM TLN
Method: MALDI-TOF MS spectra were recorded for samples containing different enzyme and substrate concentrations at various time points using an Autoflex Speed instrument (Bruker Daltonik GmbH, Leipzig, Germany) equipped with a 355-nm nitrogen laser for desorption and ionization. The ionization matrix, HCCA, was dissolved to 10 mg/mL in a standard solvent (50% MeCN, 47.5% MQ-water, and 2.5% TFA) by vigorous vortexing. Prior to the MALDI run, a main buffer (0.1 M Hepes, pH 7.5, 10 mM CaCl2) was used to dilute TLN to stock concentrations of 1000, 100 and 50 nM, ES005–500 µM, and galardin to 10 µM. All stocks solutions were kept on ice. For the 0 min incubation, 1 µL TLN and 1 µL galardin were preincubated at 37°C in 8 µL of the main buffer for 10 min before adding 1 µL of ES005. For all other time points, 1 µL of ES005 was added to tubes containing 8 µL buffer and 1 µL of TLN at different concentrations, followed by incubation at 37°C. At each timepoint (0, 1, 3, 5, 10, 20, 30, 60, 120 min), 1 µL of galardin was added to stop enzyme activity. After the final incubation, 1 µL aliquots from each timepoint were mixed with an equal volume of HCCA and spotted onto a MALDI plate. […] The resulting mass spectra were analysed using flexAnalysis software (v3.3, Bruker).

| Structure (SMILES) | inhibitory effect on enzymatic activity ([3]; MMP-14, 100 μM compound) | inhibitory effect on enzymatic activity ([4]; MMP-9(A)) | inhibitory effect on enzymatic activity ([5]; MMP-9(MT)) | inhibitory effect on enzymatic activity ([6]; ALN) | inhibitory effect on enzymatic activity ([7]; PLN) | inhibitory effect on enzymatic activity ([8]; TLN) | Ki [3] [µM] | Ki [4] [µM] | Ki [5] [µM] | Ki [6] [µM] | Ki [7] [µM] | Ki [8] [µM] | also measured |
| --- | --- | --- | --- | --- | --- | --- | --- | --- | --- | --- | --- | --- | --- |
| COc1ccc2c(CC(=O)N3CCC[C@H]3C(=O)N[C@@H](CC(C)C)C(=O)NCC(=O)N[C@@H](CC(C)C)C(=O)N[C@@H](CNc3ccc([N+](=O)[O-])cc3[N+](=O)[O-])C(=O)N[C@@H](C)C(=O)N[C@@H](CCCNC(=N)N)C(N)=O)cc(=O)oc2c1 [ES001, Mca-Pro-Leu-Gly-Leu-Dpa-Ala-Arg-NH2] (Mca-PLGL[Dap](Dnp)AR-NH2) | – | – | – | – | – | – | – | – | – | – | – | – | Km [1]: 4 ± 1 µM; Km [2]: 4.9 ± 0.4 µM |
| CC(=O)NC(CC(C)C)C(=O)CC(C)P(=O)(O)CC(Cc1ccccc1)C(=O)O (stereo not shown) [H-3] | weak or no inhibition | weak or no inhibition | weak or no inhibition | weak or no inhibition | weak or no inhibition | weak or no inhibition | – | – | – | – | – | – | pre-incubation time after which inhibition stabilizes (slow binding) ([3]; MMP-14, 100 μM compound, pre-incubation at room temperature): 15 min; Ki ([3]; MMP-14, substrate ES001 4.0 µM, 0.1 M Hepes pH 7.5, 37°C, 1.0% DMSO, Ki from IC50 (Eqn. 3)): ≥ 100 µM; Ki ([4]; MMP-9(A), substrate ES001 4.0 µM, 0.1 M Hepes pH 7.5, 37°C, 1.0% DMSO, Ki from IC50 (Eqn. 3)): ≥ 100 µM; Ki ([5]; MMP-9(MT), substrate ES001 4.0 µM, 0.1 M Hepes pH 7.5, 37°C, 1.0% DMSO, Ki from IC50 (Eqn. 3)): ≥ 100 µM; Ki ([6]; read-out: Ki ± s.d., ALN, substrate ES005 4.0 µM, 0.1 M Hepes pH 7.5, 37°C, 1.0% DMSO, Ki from IC50 (Eqn. 3)): ≥ 100 µM; Ki ([7]; read-out: Ki ± s.d., PLN, substrate ES005 4.0 µM, 0.1 M Hepes pH 7.5, 37°C, 1.0% DMSO, Ki from IC50 (Eqn. 3)): ≥ 100 µM; Ki ([8]; TLN, substrate ES005 4.0 µM, 0.1 M Hepes pH 7.5, 37°C, 1.0% DMSO, Ki from IC50 (Eqn. 3)): ≥ 100 µM |
| CC(NC(=O)OCc1ccccc1)P(=O)(O)CC(Cc1ccccc1)C(=O)O (stereo not shown) [H-4] | weak or no inhibition | weak or no inhibition | weak or no inhibition | weak or no inhibition | weak or no inhibition | weak or no inhibition | ≥ 100 | ≥ 100 | ≥ 100 | ≥ 100 | ≥ 100 | ≥ 100 | – |
| CCOC(=O)C(CO)CP(=O)(O)C(Cc1ccccc1)NC(=O)OCc1ccccc1 (stereo not shown) [H-5] | weak or no inhibition | weak or no inhibition | weak or no inhibition | weak or no inhibition | weak or no inhibition | weak or no inhibition | ≥ 100 | ≥ 100 | ≥ 100 | ≥ 100 | ≥ 100 | ≥ 100 | – |
| CNC(=O)[C@H](Cc1c[nH]c2ccccc12)NC(=O)[C@@H](CC(=O)NO)CC(C)C [galardin] | – | – | – | – | – | – | – | – | – | – | – | – | inhibition of TLN (stopping of substrate cleavage) [9]: not sufficient to completely inhibit |
